Experiment [1] concerns the target T1, VR-NSP11 (PRRSV VR2332, UniProt Q9WJB2).
T1 construct: gene rep; mature NSP11 cut from replicase polyprotein 1ab (ORF1b part); N-terminal 6xHN tag (pET6xHN-N), expressed in E. coli BL21(DE3), TALON purified
Kind of experiment: FRET NendoU assay (6-FAM/BHQ-1 RNA R23.[…]). In kind it is biochemical.

Experiment [2] concerns the target T1, VR-NSP11. Kind of experiment: microscale thermophoresis. In kind it is binding. An excerpt: microscale thermophoresis on VR-NSP11 | The MST analysis confirmed a direct interaction between VR-NSP11 and both compounds

Like-named read-outs stand apart in the source and are kept apart here.

T1 sequence (Q9WJB2 3585-3807): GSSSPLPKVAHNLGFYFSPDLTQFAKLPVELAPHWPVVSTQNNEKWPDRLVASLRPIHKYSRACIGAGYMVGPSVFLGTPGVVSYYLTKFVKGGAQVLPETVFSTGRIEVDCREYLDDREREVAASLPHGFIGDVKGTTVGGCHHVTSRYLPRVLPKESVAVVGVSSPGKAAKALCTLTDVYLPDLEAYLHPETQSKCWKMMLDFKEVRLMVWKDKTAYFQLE

Consider `CCc1c(C)nc(Nc2nc(C)c3ccc(OC)cc3n2)nc1O` [A8-A2], for which, at VR-NSP11 [1] (read-out: IC50), the IC50 (in general, the concentration needed to halve the response being measured) worked out at 24.6 µM. Moreover, binding at VR-NSP11 [2] was put at a Kd of 23 µM.

For `COc1ccc2c(C)nc(Nc3nc(C)c(C)c(=O)[nH]3)nc2c1` [Madrasin], at VR-NSP11 [1] (fluorescence at 2 h, 1 µM R23.1, HEPES pH 7.5, 50 mM KCl, 1 mM DTT, 25 °C, 1.2 µM enzyme), the concentration for half-maximal inhibition (IC50) entry is “these IC50 values are higher than those of C5 and Madrasin”.

These data come from article PMC11852993, “Discovery of small molecules against porcine reproductive and respiratory syndrome virus replication by targeting NendoU activity” (Journal of Virology, 2024).
